Data: patent publication US4410716A, “Dibenzo[a,d]cycloheptene derivatives and process for production thereof” (Toa Eiyo Kagaku Kogyo Co. Ltd., priority 1979, dated 1983)
Entries after “also recorded” stand apart in the source; their conditions may differ. Where two headings read alike, the source gives them in different places.

Key:
[1] = system: gastric wall; test: in vivo; details: rat, in vivo, po
Protocol: (§1) The anti-inflammatory activity, analgesic activity and ulcerogenic activity of the novel dibenzo[a,d]cycloheptene derivatives of this invention were tested by the following methods.
(§2) Sixteen hours later, the rats were sacrificed under ether anesthesia.
(§3) *Calculated by the Adami's method.
(§4) **Calculated by the LitchfieldWilcoxon's method. The parenthesized values
(§5) show 95% confidence limits.

[2] = system: edema (carrageenin, hind paw); test: Anti-inflammatory activity: carrageenin hind paw edema in rats, oral administration; assay type: in vivo, male Donryu rats; details: for inhibition in vivo at 25 mg/kg / inhibition in vivo at 100 mg/kg / ED40 / inhibition in vivo at 5 mg/kg / inhibition in vivo at 20 mg/kg / inhibition in vivo at 50 mg/kg / inhibition in vivo at 1 mg/kg / inhibition in vivo at 10 mg/kg: Rattus norvegicus; for inhibition in vivo at 25 mg/kg: 25 mg/kg oral; for inhibition in vivo at 25 mg/kg / inhibition in vivo at 100 mg/kg / inhibition in vivo at 5 mg/kg / inhibition in vivo at 20 mg/kg / inhibition in vivo at 50 mg/kg / inhibition in vivo at 1 mg/kg / inhibition in vivo at 10 mg/kg: read-out: Percent edema inhibition; for inhibition in vivo at 100 mg/kg: 100 mg/kg oral; for ED40: dose causing 40% inhibition, dose-response line, read-out: ED40 value; for ED40 / anti-inflammatory activity (in words): oral; for anti-inflammatory activity (in words): carrageenin edema, rat; for inhibition in vivo at 5 mg/kg: 5 mg/kg oral; for inhibition in vivo at 20 mg/kg: 20 mg/kg oral; for inhibition in vivo at 50 mg/kg: 50 mg/kg oral; for inhibition in vivo at 1 mg/kg: 1 mg/kg oral; for inhibition in vivo at 10 mg/kg: 10 mg/kg oral
Protocol: as §1
Each of test compounds was orally administered to groups of male Donryu rats weighing 130 to 150 g (8 to 10 rats per group), and one hour later, 0.1 ml of a 1% carrageenin solution was injected subcutaneously into the hind paw of each rat. After injection of carrageenin, the volume of the paw was measured at predetermined periods, and the percent inhibition against a control group was calculated.

[3] = system: writhing syndromes (acetic acid); test: Analgesic activity: acetic acid writhing in mice; assay type: in vivo, male ICR mice
Protocol: as §1
Using male ICR mice weighing 25 to 30 g (10 mice per group), there was measured the number of writhing syndromes induced when a 1% solution of acetic acid was intraperitoneally injected at a dose of 10 ml/kg. The percent inhibition against a control group was calculated.

[4] = in vivo; details: rat, in vivo, po
Protocol: as §1, §2, §3, §4, §5

O=C(O)Cc1ccc2c(c1)C(=O)Cc1ccccc1C2 [Ia, 10,11-dihydro-11-oxo-5H-dibenzo[a,d]cycloheptene-2-acetic acid]
ulcerogenic activity (in words) [1]: much weaker than that of indomethacin
inhibition in vivo at 25 mg/kg ([2]; 1 hour after carrageenin): 28.2%
inhibition in vivo at 25 mg/kg ([2]; 2 hours after carrageenin): 41.8%
inhibition in vivo at 25 mg/kg ([2]; 3 hours after carrageenin): 44.5%
inhibition in vivo at 25 mg/kg ([2]; 4 hours after carrageenin): 41%
inhibition in vivo at 100 mg/kg ([2]; 1 hour after carrageenin): 33%
inhibition in vivo at 100 mg/kg ([2]; 2 hours after carrageenin): 50%
inhibition in vivo at 100 mg/kg ([2]; 3 hours after carrageenin): 53.7%
inhibition in vivo at 100 mg/kg ([2]; 4 hours after carrageenin): 52.2%
ED40 ([2]; 3 hours after carrageenin): 13 mg/kg
anti-inflammatory activity (in words) [2]: excellent anti-inflammatory activity; also recorded: evidently show anti-inflammatory activity although their activity is weaker than that of indomethacin

O=C(O)Cc1ccc2c(c1)C(=O)Cc1cc(F)ccc1C2 [Ib, 8-fluoro-10,11-dihydro-11-oxo-5H-dibenzo[a,d]cycloheptene-2-acetic acid]
ulcerogenic activity (in words) [1]: much weaker than that of indomethacin
inhibition in vivo at 25 mg/kg ([2]; 1 hour after carrageenin): 32.4%
inhibition in vivo at 25 mg/kg ([2]; 2 hours after carrageenin): 45.3%
inhibition in vivo at 25 mg/kg ([2]; 3 hours after carrageenin): 43.4%
inhibition in vivo at 25 mg/kg ([2]; 4 hours after carrageenin): 41.9%
inhibition in vivo at 100 mg/kg ([2]; 1 hour after carrageenin): 44.1%
inhibition in vivo at 100 mg/kg ([2]; 2 hours after carrageenin): 57.9%
inhibition in vivo at 100 mg/kg ([2]; 3 hours after carrageenin): 52.6%
inhibition in vivo at 100 mg/kg ([2]; 4 hours after carrageenin): 53%
ED40 ([2]; 3 hours after carrageenin): 15 mg/kg
anti-inflammatory activity (in words) [2]: excellent anti-inflammatory activity; also recorded: evidently show anti-inflammatory activity although their activity is weaker than that of indomethacin

O=C(O)Cc1ccc2c(c1)Cc1ccccc1CC2=O [Ic, 10,11-dihydro-11-oxo-5H-dibenzo[a,d]cycloheptene-3-acetic acid]
inhibition in vivo at 25 mg/kg ([2]; 1 hour after carrageenin): 32.8%
inhibition in vivo at 25 mg/kg ([2]; 2 hours after carrageenin): 29.4%
inhibition in vivo at 25 mg/kg ([2]; 3 hours after carrageenin): 25.5%
inhibition in vivo at 25 mg/kg ([2]; 4 hours after carrageenin): 24%
inhibition in vivo at 100 mg/kg ([2]; 1 hour after carrageenin): 51.4%
inhibition in vivo at 100 mg/kg ([2]; 2 hours after carrageenin): 44.7%
inhibition in vivo at 100 mg/kg ([2]; 3 hours after carrageenin): 40.7%
inhibition in vivo at 100 mg/kg ([2]; 4 hours after carrageenin): 39.3%
ED40 ([2]; 3 hours after carrageenin): 94 mg/kg
anti-inflammatory activity (in words) [2]: excellent anti-inflammatory activity; also recorded: evidently show anti-inflammatory activity although their activity is weaker than that of indomethacin

O=C(O)Cc1ccc2c(c1)CC(=O)c1ccccc1C2 [Id, 10,11-dihydro-10-oxo-5H-dibenzo[a,d]cycloheptene-2-acetic acid]
inhibition in vivo at 25 mg/kg ([2]; 1 hour after carrageenin): 36%
inhibition in vivo at 25 mg/kg ([2]; 2 hours after carrageenin): 36%
inhibition in vivo at 25 mg/kg ([2]; 3 hours after carrageenin): 21.4%
inhibition in vivo at 25 mg/kg ([2]; 4 hours after carrageenin): 18.4%
inhibition in vivo at 100 mg/kg ([2]; 1 hour after carrageenin): 44.6%
inhibition in vivo at 100 mg/kg ([2]; 2 hours after carrageenin): 39%
inhibition in vivo at 100 mg/kg ([2]; 3 hours after carrageenin): 28.1%
inhibition in vivo at 100 mg/kg ([2]; 4 hours after carrageenin): 21.4%

O=C(O)Cc1ccc2c(c1)CC(=O)c1cc(Cl)ccc1C2 [Ie, 8-chloro-10,11-dihydro-10-oxo-5H-dibenzo[a,d]cycloheptene-2-acetic acid]
inhibition in vivo at 25 mg/kg ([2]; 1 hour after carrageenin): 4.5%
inhibition in vivo at 25 mg/kg ([2]; 2 hours after carrageenin): 8.6%
inhibition in vivo at 25 mg/kg ([2]; 3 hours after carrageenin): 3%
inhibition in vivo at 25 mg/kg ([2]; 4 hours after carrageenin): 2.3%
inhibition in vivo at 100 mg/kg ([2]; 1 hour after carrageenin): -0.7%
inhibition in vivo at 100 mg/kg ([2]; 2 hours after carrageenin): 1.3%
inhibition in vivo at 100 mg/kg ([2]; 3 hours after carrageenin): -4.2%
inhibition in vivo at 100 mg/kg ([2]; 4 hours after carrageenin): -1.8%

O=C(O)Cc1ccc2c(c1)Cc1ccccc1C(=O)C2 [If, 10,11-dihydro-10-oxo-5H-dibenzo[a,d]cycloheptene-3-acetic acid]
inhibition in vivo at 25 mg/kg ([2]; 1 hour after carrageenin): -22.6%
inhibition in vivo at 25 mg/kg ([2]; 2 hours after carrageenin): -16.8%
inhibition in vivo at 25 mg/kg ([2]; 3 hours after carrageenin): -12.3%
inhibition in vivo at 25 mg/kg ([2]; 4 hours after carrageenin): -8.7%
inhibition in vivo at 100 mg/kg ([2]; 1 hour after carrageenin): -23.5%
inhibition in vivo at 100 mg/kg ([2]; 2 hours after carrageenin): -21.4%
inhibition in vivo at 100 mg/kg ([2]; 3 hours after carrageenin): -9.1%
inhibition in vivo at 100 mg/kg ([2]; 4 hours after carrageenin): -5.5%

COC1=Cc2ccccc2Cc2ccc(CC(=O)O)cc21 [Ig, 11-methoxy-5H-dibenzo[a,d]cycloheptene-2-acetic acid]
inhibition in vivo at 100 mg/kg ([2]; 1 hour after carrageenin): 25.5%
inhibition in vivo at 100 mg/kg ([2]; 2 hours after carrageenin): 40.6%
inhibition in vivo at 100 mg/kg ([2]; 3 hours after carrageenin): 42.6%
inhibition in vivo at 100 mg/kg ([2]; 4 hours after carrageenin): 37.1%

COC1=Cc2ccccc2Cc2ccc(C(C)C(=O)O)cc21 (stereo not drawn) [Ih, 2-(11-methoxy-5H-dibenzo[a,d]cyclohepten-2-yl)propionic acid]
inhibition in vivo at 5 mg/kg ([2]; 1 hour after carrageenin): 18.4%
inhibition in vivo at 5 mg/kg ([2]; 2 hours after carrageenin): 24.7%
inhibition in vivo at 5 mg/kg ([2]; 3 hours after carrageenin): 12%
inhibition in vivo at 5 mg/kg ([2]; 4 hours after carrageenin): 12.6%
inhibition in vivo at 20 mg/kg ([2]; 1 hour after carrageenin): 28.1%
inhibition in vivo at 20 mg/kg ([2]; 2 hours after carrageenin): 22.9%
inhibition in vivo at 20 mg/kg ([2]; 3 hours after carrageenin): 26.8%
inhibition in vivo at 20 mg/kg ([2]; 4 hours after carrageenin): 26.8%
inhibition in vivo at 50 mg/kg ([2]; 1 hour after carrageenin): 35.6%
inhibition in vivo at 50 mg/kg ([2]; 2 hours after carrageenin): 32.9%
inhibition in vivo at 50 mg/kg ([2]; 3 hours after carrageenin): 35.4%
inhibition in vivo at 50 mg/kg ([2]; 4 hours after carrageenin): 35.7%
ED40 ([2]; 3 hours after carrageenin): 77 mg/kg
anti-inflammatory activity (in words) [2]: excellent anti-inflammatory activity; also recorded: evidently show anti-inflammatory activity although their activity is weaker than that of indomethacin

CC(C(=O)O)c1ccc2c(c1)C(=O)Cc1ccccc1C2 (stereo not drawn) [compound Ii, 2-(10,11-dihydro-11-oxo-5H-dibenzo[a,d]cyclohepten-2-yl)propionic acid]
Inhibition (writhing) ([3]; 10.0 mg/kg): 14.0%
Number of writhing syndromes (Mean ± SE) ([3]; 10.0 mg/kg): 19.7 ± 1.77
Inhibition (writhing) ([3]; 20.0 mg/kg): 33.6%
Number of writhing syndromes (Mean ± SE) ([3]; 20.0 mg/kg): 15.2 ± 1.28
Inhibition (writhing) ([3]; 40.0 mg/kg): 45.4%
Number of writhing syndromes (Mean ± SE) ([3]; 40.0 mg/kg): 12.5 ± 1.65
Inhibition (writhing) ([3]; 80.0 mg/kg): 57.6%
Number of writhing syndromes (Mean ± SE) ([3]; 80.0 mg/kg): 9.7 ± 1.93
ED50 ([3]; Mus musculus, po, dose causing 50% inhibition of writhing, dose-response line, read-out: ED50 value): 52 mg/kg
ED50 value relative to that of indomethacin ([3]; writhing, mouse): ten times
analgesic activity (in words) ([3]; writhing, mouse): weak analgesic activity
analgesic activity relative to indomethacin ([3]; writhing, mouse): one-tenth of that of indomethacin
TD50 at 16 h [4]: 15 mg/kg
selectivity ratio [4]: 7.9
inhibition in vivo at 1 mg/kg ([2]; 1 hour after carrageenin): 34.4%
inhibition in vivo at 1 mg/kg ([2]; 2 hours after carrageenin): 30.6%
inhibition in vivo at 1 mg/kg ([2]; 3 hours after carrageenin): 32.4%
inhibition in vivo at 1 mg/kg ([2]; 4 hours after carrageenin): 32.4%
inhibition in vivo at 5 mg/kg ([2]; 1 hour after carrageenin): 35.8%
inhibition in vivo at 5 mg/kg ([2]; 2 hours after carrageenin): 54%
inhibition in vivo at 5 mg/kg ([2]; 3 hours after carrageenin): 51.7%
inhibition in vivo at 5 mg/kg ([2]; 4 hours after carrageenin): 50.9%
inhibition in vivo at 10 mg/kg ([2]; 1 hour after carrageenin): 50%
inhibition in vivo at 10 mg/kg ([2]; 2 hours after carrageenin): 55%
inhibition in vivo at 10 mg/kg ([2]; 3 hours after carrageenin): 54.6%
inhibition in vivo at 10 mg/kg ([2]; 4 hours after carrageenin): 54.6%
ED40 ([2]; 3 hours after carrageenin): 1.9 mg/kg
anti-inflammatory activity (in words) [2]: excellent anti-inflammatory activity; also recorded: stronger than that of indomethacin; also recorded: very potent anti-inflammatory activity
